Test results reported in patent publication EP1228058B1, “BENZOPYRANYL GUANIDINE DERIVATIVES, PROCESS FOR PREPARATION THEREOF, AND PHARMACEUTICAL COMPOSITIONS CONTAINING THEM” (Dongbu Hannong Chemical Co., Ltd., priority 1999, dated 2001).
Several values for one entry are separate records, joined by “and”; a condition that tells them apart may be missing. Identical values can stand only once. Like-named read-outs stand apart in the source and are kept apart here.

Columns and labels:
[1] = tested on: angiogenesis induced by Angiotensin II in Sprague-Dawley rats; test: Suppression of Angiotensin II induced angiogenesis in implanted sponge (99mTc-DTPA clearance); assay type: in vivo; details: AII (100nmol) + test drug, 7 days after injection
A7r5 [2] = test: Inhibition of intracellular ROS induced by H2O2 (H2DCFDA) in A7r5; assay type: cell-based; details: Rattus norvegicus
Protocol: Measurement of intracellular ROS (Reactive Oxygen Species) was determined using H2DCFDA (2',7'-dichlorodihydrofluorescein diacetate, Molecular Probes, Eugene, OR, USA). H2DCFDA is a non-polar compound that readily diffused into cells, where it is hydrolyzed by intracellular esterase to polar derivative H2DCF (2',7'-dichlorodihydrofluorescein) which can not cross the cell membrane, and thereby trapped within the cell. H2DCF is low-fluorescent, but converted to high-fluorescent DCF (2',7'-dichlorofluorescein) by intracellular ROS. Therefore, the intracellular ROS formation can be determined from the amount of converted DCF. HUVEC (Human umbilical Vascular Endothelial Cells) or A7r5 (Rat thoracic aorta smooth muscle cells) were used. HUVEC were cultured in Kaighn's F12K medium supplemented with 10% heat-inactivated FBS, 0.1 mg/ml heparin sodium, 0.03-0.05 mg/ml ECGS (Endothelial cell growth supplement) and 1% antibiotics, and A7r5 were cultured in DMEM supplemented with 10% heat inactivated FBS and 1% antibiotics. To measure the intracellular ROS, HUVEC or A7r5 were preincubated for 30 min in the presence of test compounds (10^-7-10^-5 M). Thereafter, cells were stimulated with H2O2 (10^-6 and 10^-5 M for 20 min), and then incubated in the dark for 2 hr at 37 °C in 50 mM phosphate buffer (pH 7.4) containing 5 uM H2DCFDA. The quantity of DCF fluorescence (485 nm excitation, 530 nm emission) was measured using Fluorescence plate reader (FL600, Biotek Instruments).

A7r5 [3] = test: Inhibition of A7r5 mediated LDL oxidation (MDA); assay type: cell-based, rat; details: Rattus norvegicus; for inhibition at 100 µM: 10^-4 M; for inhibition at 10 µM: 10^-5 M; for inhibition at 1 µM: 10^-6 M
Protocol: A7r5 (ATCC CRL-1444, smooth muscles, thoracic aorta, BDIX rat) cells were cultured in 24 well plates, using the medium of DMEM (Dulbecco's modified Eagle's Medium) supplemented with 10% heat-inactivated FBS (fetal bovine serum) and 1% antibiotics. Confluent A7r5 from plates were washed with phosphate-buffered solution, and DMEM with 10% FBS and 1% antibiotics was added in a total volume of 0.5 ml/well. Cells (2 x 10^5 cells/ml) were preincubated without and with either test compounds (10^-6 - 10^-4 M) or Tocopherol (10^-6 - 10^-4 M) at 37 °C for 30 min. Then, A7r5 alone or A7r5 plus H2O2 (10^-7 M) were exposed to LDL (100 ug/ml) for 24 hr.
The inhibitory effect of the test compounds against the lipid peroxidation was evaluated by calculating MDA reduction rate of the test compounds compared with that of the control group same as the above example 5 (2).

[4] = tested on: brain ischemia-reperfusion in Sprague-Dawley rats; test: Protection against brain damage induced by brain ischemia-reperfusion
Protocol: Male Sprague-Dawley rats (350±50 g, SamYook Experimental Animals Co., Korea) were anesthetized by the injection of pentobarbital sodium at a dose of 40 mg/kg, after which the femoral vein and the artery were cannulated with PE-10 while the left carotid artery was exposed. Five min. before the operation, 20 ug/kg of heparin sulfate was injected into the peritoneal cavity. For the continuous measurement of arterial pressure, with a insertion of a blood pressure measuring device into the femoral artery. About 10 ml of blood was taken from the femoral vein to reduce the blood pressure down to 30 mmHg. If the blood pressure is not reduced to less than 100 mmHg with a withdrawal of 7 ml of blood, the rats are considered to have high sympathetic tone.
While the blood pressure was maintained at 30 mmHg, the exposed left carotid artery was occluded for 20 min by an aneurysm clamp to cause cerebral ischemia. Then, the carotid clamps were removed and the extracted blood was reinfused. To minimize the systemic acidosis, the rats were reinfused with 5 ml of saline containing 0.84% bicarbonate sodium (bicarbonate saline). During operation and restoration period, body temperature was maintained at 37±0.5 °C with the aid of a thermal blanket and incandescent light bulbs. During their restoration from the operation, the body temperature was kept constant for 2 hours or more. […]
24 hours after the operation, the rats were sacrificed with a scaffold and the brain was removed rapidly (3 min). […] After photographs were taken of the stained sections, developed and printed, the percentages of the infarcted brain areas to the total brain were measured and analyzed using an image analyzing program (Image-Pro Plus ver. 3.0.1). […]
The protective effects of the test compounds on the brain damage caused by brain ischemia-reperfusion were expressed as a reduction percentages of infarcted brain areas compared with those of the control group.

diabetic rats = test: Effects on MNCV (motor nerve conduction velocity) in diabetic rats; assay type: in vivo; design: MNCV (sec): unit not given here; details: 30 mg/Kg, orally once a day
Protocol: Diabetes was induced with i.p. (intra peritoneum) injection of streptozocin (65 mg/Kg) in rats, then test compounds dissolved in 2 ml of media (physiological saline: ethanol: tween 80 = 8:1:1), were orally administered once a day. Rats were anesthetized with halothane, then the sciatic nerve was exposed to measure MNCV. The nerve was stimulated at two points. The first stimulus electrode was inserted at proximal end, and second stimulating electrode was inserted at the sciatic notch. The coaxial needle electrode was inserted into interdigital muscle, then the muscle action potential induced by two point stimulation. The conduction velocity was calculated by dividing the distance between two stimulus points by the latency difference. Lipoic acid (100 mg/Kg) was used in comparison with the compound of formula 1 in recovery of impaired MNCV in diabetic rats. The recovery (%) of MNCV was calculated according to the following mathematical formula 4. [Mathematical formula 4] Recovery(%) =(MNCV of treated group - MNCV of diabetic rats)/(MNCV of normal control-MNCV of diabetic rats)x100 [formula]

[5] = A7r5 alone, LDL 100 ug/ml, 24 hr, read-out: % Inhibition LDL
[6] = A7r5 plus H2O2 (10^-7 M), read-out: % Inhibition LDL + H2O2 (10^-7M)

SMILES	Clearance of ^99mTC (%) ([1]; Dose 0.1 mg/kg (p.o))	Clearance of ^99mTC (%) ([1]; Dose 0.3 mg/kg (p.o))	Clearance of ^99mTC (%) ([1]; Dose 1.0 mg/kg (p.o))	inhibition at 10 µM (A7r5 [2]; A7r5, Conc. 10^-5 M, read-out: Inhibition (%) H2O2 (10^-6M)) [%]	inhibition at 1 µM (A7r5 [2]; A7r5, Conc. 10^-6 M) [%]	inhibition at 0.1 µM (A7r5 [2]; A7r5, Conc. 10^-7 M, read-out: Inhibition (%) H2O2 (10^-6M)) [%]	inhibition at 100 µM (A7r5 [3]; [5]) [%]	inhibition at 100 µM (A7r5 [3]; [6]) [%]	inhibition at 10 µM (A7r5 [3]; [5]) [%]	inhibition at 10 µM (A7r5 [3]; [6]) [%]	inhibition at 1 µM (A7r5 [3]; [5]) [%]	inhibition at 1 µM (A7r5 [3]; [6]) [%]	Infarction Area Reduction(%) ([4]; Dose 30 mg/kg, compared with the control group)	Infarction Area Mean±SD(%) ([4]; Dose 30 mg/kg, peritoneally, 30 min before and 2, 4, 16 hours after occlusion)	side effects ([4]; rat, in vivo, 30 mg/kg)	MNCV (sec) (diabetic rats; streptozocin diabetic rats)	Recovery (%) (diabetic rats; MNCV, diabetic rats)
COC(OC)[C@@]1(C)Oc2ccc([N+](=O)[O-])cc2[C@H](NC(=NC#N)NCc2ccccc2)[C@H]1O [Example 24, (2S, 3R, 4S)-N''-cyano-N-(6-nitro-3,4-dihydro-3-hydroxy-2-methyl-2-dimethoxymethyl-2H-benzopyran-4-yl)-N'-benzylguanidine]	26.90	18.22	3.38	185	111	72											
COC(OC)[C@@]1(C)Oc2ccc(N)cc2[C@@H](NC(=NC#N)NCc2ccccc2)[C@@H]1O [Example 40, (2S, 3S, 4R)-N''-cyano-N-(6 - amino-3,4-dihydro-3-hydroxy-2-methyl-2-dimethoxymethyl-2H-benzopyran-4-yl)-N'-benzylguanidine]							57.5	64.3	51.4	62.5	40.9	49.7	42.0	23.0% and 23.0 ± 3.3%	did not suffer from any side effects	47.756	63.0
